Twelve molecules from ChEMBL document CHEMBL1795231, “Inhibitors of histone demethylases” (Bioorg Med Chem, 2011) can be followed below.

The target in test [1] is Lysine-specific histone demethylase 1A (Homo sapiens, UniProt O60341).
Test [2] addresses T1, Lysine-specific demethylase 4E (Homo sapiens, UniProt B2RXH2).
T1 sequence (B2RXH2 whole entry): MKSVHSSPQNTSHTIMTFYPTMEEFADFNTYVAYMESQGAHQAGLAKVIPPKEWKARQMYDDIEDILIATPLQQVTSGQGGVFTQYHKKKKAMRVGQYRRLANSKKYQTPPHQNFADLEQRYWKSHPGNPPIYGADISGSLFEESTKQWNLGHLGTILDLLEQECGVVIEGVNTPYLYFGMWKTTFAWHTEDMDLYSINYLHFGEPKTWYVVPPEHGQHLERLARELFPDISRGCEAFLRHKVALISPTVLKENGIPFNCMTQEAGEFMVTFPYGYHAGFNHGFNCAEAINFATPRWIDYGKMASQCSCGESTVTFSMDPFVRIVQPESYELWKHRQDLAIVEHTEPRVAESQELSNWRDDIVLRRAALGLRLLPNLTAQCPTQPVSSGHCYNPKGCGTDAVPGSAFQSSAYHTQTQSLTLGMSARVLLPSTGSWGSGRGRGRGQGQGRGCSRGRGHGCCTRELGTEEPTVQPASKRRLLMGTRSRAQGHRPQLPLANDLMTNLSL

Test [3] concerns the target T1, Lysine-specific demethylase 4E. This is another data set of the same source.
The target in test [4] is Hypoxia-inducible factor 1-alpha inhibitor (Homo sapiens, UniProt Q9NWT6). Put plainly: Inhibition of asparaginyl hydroxylase factor-inhibiting-HIF.
Sequence of Hypoxia-inducible factor 1-alpha inhibitor (Q9NWT6 whole entry): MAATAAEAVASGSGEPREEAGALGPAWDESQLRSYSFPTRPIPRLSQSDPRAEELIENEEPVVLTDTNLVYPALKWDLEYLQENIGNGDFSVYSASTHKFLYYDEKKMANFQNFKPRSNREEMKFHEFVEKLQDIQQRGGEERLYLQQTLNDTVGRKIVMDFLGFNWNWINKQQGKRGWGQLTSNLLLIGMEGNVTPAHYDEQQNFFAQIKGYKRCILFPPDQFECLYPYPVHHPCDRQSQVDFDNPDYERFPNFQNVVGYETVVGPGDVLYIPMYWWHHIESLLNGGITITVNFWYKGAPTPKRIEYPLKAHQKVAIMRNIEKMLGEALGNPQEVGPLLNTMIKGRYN
The next test has as its target Egl nine homolog 1 (Homo sapiens, UniProt Q9GZT9). Put plainly: Inhibition of human PHD2.
The target of test [5] is T1, Lysine-specific demethylase 4E. This is another data set of the same source.
Test [6] shares this target. The source holds these as a separate data set.
The target is the same in test [7]. The source holds these as a separate data set.
Test [8] has the same target. In words: Uncompetitive inhibition of JMJD2E relative to alpha-ketoglutarate.

Structures are written as SMILES.

Sequence of Egl nine homolog 1 (Q9GZT9 whole entry): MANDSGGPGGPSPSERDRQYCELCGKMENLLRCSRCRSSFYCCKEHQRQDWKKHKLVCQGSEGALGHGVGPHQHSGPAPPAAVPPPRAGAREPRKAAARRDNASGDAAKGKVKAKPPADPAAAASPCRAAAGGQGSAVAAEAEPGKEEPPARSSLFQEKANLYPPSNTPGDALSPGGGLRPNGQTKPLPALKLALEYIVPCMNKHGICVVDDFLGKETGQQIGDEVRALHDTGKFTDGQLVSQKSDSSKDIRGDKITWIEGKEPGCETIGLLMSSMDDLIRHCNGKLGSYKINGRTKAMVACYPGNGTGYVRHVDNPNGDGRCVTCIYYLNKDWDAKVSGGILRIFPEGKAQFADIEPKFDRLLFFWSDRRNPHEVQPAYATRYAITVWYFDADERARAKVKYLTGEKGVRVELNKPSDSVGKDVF

As for `CC(C)COc1ccc(Cl)cc1C1CC1N` (stereo not given), the IC50 in [1] worked out at 9 µM. As for `O=C(O)C(=O)N[C@H](CSCc1ccccc1)C(=O)O`, in [2], the half-inhibitory concentration (IC50) amounted to 200 µM. The same measure, in the same setting: the result for `COc1ccccc1CSC[C@@H](NC(=O)C(=O)O)C(=O)O` reads 200 µM.

`O=C(NO)c1cccc(O)c1` yielded an IC50 in test [3] of 4.8 µM. In turn, `O=C(O)C(=O)N[C@H](CCc1ccccc1)C(=O)O` yielded a Ki in test [4] of 83 µM. Also, the concentration for half-maximal inhibition (IC50) at Egl nine homolog 1 is greater than 1000 µM. `CC(C)(C)c1ccc(S(=O)(=O)Oc2ccc(C[C@@H](NC(=O)C(=O)O)C(=O)O)cc2)cc1` displayed an IC50 in test [2] of 5 µM. Still for that read-out and setting: the result for `O=C(O)C(=O)N[C@H](Cc1ccc(OS(=O)(=O)c2ccc(F)cc2)cc1)C(=O)O` reads 5 µM. `O=C(O)C(=O)N[C@H](Cc1ccc(OS(=O)(=O)c2ccc(Br)cc2)cc1)C(=O)O` showed a half-maximal inhibitory concentration (IC50) in test [5] of 5.4 µM. For the molecule `O=c1cc(-c2ccccc2)oc2cc(O)c(O)c(O)c12` [BAICALEIN], half-maximal inhibition in test [6] (IC50) required 3 µM. In test [7], the affinity corresponds to a Ki of 4.33 µM. `C[C@@](Cc1ccc(O)c(O)c1)(NN)C(=O)O` [CARBIDOPA] returned a Ki in test [8] of 1.98 µM. Take `Oc1ccc(C2CNCCc3c2cc(O)c(O)c3Cl)cc1` (stereo not given) [FENOLDOPAM]: the Ki in test [7] was found to be 1.92 µM. In the case of `CC1(C)CCC2=C(O1)c1ccccc1C(=O)C2=O` [LAPACHONE], the IC50 in [6] is 3 µM. In test [7], this molecule showed an inhibitory constant (Ki) of 3.55 µM.

A word on the IC50: it is the concentration that inhibits the measured activity by half. What is called Ki is the equilibrium dissociation constant of an inhibitor or competing ligand from its target. A lower Ki goes with higher affinity.
